Reference: patent publication US20240024228A1, “Apremilast Ophthalmic Compositions” (APRAMITHA INNOVATIONS PRIVATE LIMITED, priority 2020, published 2024)

How the values were obtained:
[1] = Solubility study of Apremilast in surfactants and their combinations; format: physicochemical
Description: The solubility of Apremilast was evaluated in various surfactants and their combinations:
About 50 mg of Apremilast (0.05% w/w) was weighed and dissolved in surfactant and or combination of surfactants at different ratios by heating at a temperature below 85° C. After complete solubilization of the Apremilast in the solubilizer matrix, purified water (q.s to 100%) was added, vortexed for 2 minutes and kept aside.

[2] = cited from earlier work
[3] = dissolved by heating below 85° C., water q.s., observed 24 hrs to 1 week

Solubility in combination of surfactants (Tween 80 and Kolliphore E L) with PEG400 [1]: good solubility
Stabilization of API ([1]; PEG400 in combination with Tween 80/Kolliphore E L): stabilized
Surfactant concentration sufficient to stabilise Apremilast ([1]; Tween 80 / kolliphor E. L, 0.001-0.9% w/w of Apremilast): 4 % w/w
Precipitation of Apremilast ([1]; below 2-8% Tween80 / kolliphor E. L concentration): precipitated out
Appearance of solution / prevention of precipitation ([1]; combination of Tween 80 and kolliphor E. L): clear solution
Solubility in Tween 80 [1, 3]: good solubility
Solubility in kolliphor E. L [1, 3]: good solubility
Precipitation of Apremilast ([1]; with 2-8% Tween80 and 2-8% kolliphor E. L): not observed
Precipitation of Apremilast ([1]; with 5% PEG 400 alone): precipitation was observed
Structure (SMILES): CCOc1cc([C@@H](CS(C)(=O)=O)N2C(=O)c3cccc(NC(C)=O)c3C2=O)ccc1OC [Apremilast, N-[2-[(1S)-1-(3-ethoxy-4-methoxyphenyl)-2-(methylsulfonyl)ethyl]-1,3-dioxo-2,3-dihydro-1H-isoindol-4-yl]acetamide]
Solubility in polar solvents ([2]; polar solvents): minimal solubility
Solubility in water ([2]; water): insolubility
